Reference: patent US6498176B1, “3-(anilinomethylene) oxindoles as protein tyrosine kinase and protein serine/threonine kinase inhibitors” (SmithKlineBeecham Corporation, priority 1999, dated 2002)

Columns and labels:
[1] = target: T1, c-fms intracellular domain (Homo sapiens, UniProt P07333); experiment: c-fms protein kinase assay; assay type: biochemical; details: 1.7 μM ATP, 90 min at room temperature; read-out: Kinase inhibition c-fms (IC50)
T1 construct: The c-fms intracellular domain was expressed from a baculovirus expression system, as an amino-terminal GST fusion protein; GST (N); made in house; host or cells: baculovirus expression system
T1 sequence (P07333 539-972 limits assumed): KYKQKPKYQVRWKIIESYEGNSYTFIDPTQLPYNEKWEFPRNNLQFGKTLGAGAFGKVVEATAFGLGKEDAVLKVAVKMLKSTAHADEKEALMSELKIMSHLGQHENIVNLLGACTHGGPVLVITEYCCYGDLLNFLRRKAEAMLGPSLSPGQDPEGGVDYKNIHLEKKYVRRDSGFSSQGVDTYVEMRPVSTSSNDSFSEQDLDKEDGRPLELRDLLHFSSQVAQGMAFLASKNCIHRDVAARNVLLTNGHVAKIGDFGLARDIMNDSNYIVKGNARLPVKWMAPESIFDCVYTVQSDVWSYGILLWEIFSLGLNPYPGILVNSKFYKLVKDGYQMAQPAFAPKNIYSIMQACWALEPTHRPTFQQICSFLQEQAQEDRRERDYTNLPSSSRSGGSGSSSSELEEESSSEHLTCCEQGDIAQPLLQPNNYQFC
Experimental: c-fms protein kinase assays utilized the peptide substrate, biotin-[…]-NH2, as the phosphoryl group acceptor. The c-fms intracellular domain was expressed from a baculovirus expression system, as an amino-terminal GST fusion protein, and purified to homogeneity using Glutathione agarose from Sigma Chemical Co. Maximum activation of the enzyme was achieved by preactivation at room temperature for 120 min in the presence of 100 μM ATP and 15 mM MgCl2, This enzyme stock was diluted to 150 nM prior to using in the assay. Typically assays were performed in white, opaque, 96-well plates in a 45 ul assay volume including 15 ul 6% DMSO, with or without compounds, 15 ul of the preactivated, diluted enzyme, and 15 ul of a substrate mixture. Reactions contained 50 mM HEPES, pH 7.5, 1.7 μM ATP, 15 mM MgCl2, 3 μM peptide, 2.5 mM DTT, 50 mM NaCl and 0.15 uCi/assay [^32P]ATP. The controls were reactions in the presence (negative controls) or absence (positive controls) of 50 mM EDTA. Reactions were allowed to proceed for 90 min at room temperature. The reaction products were quantified using Scintillation Proximity technolgy. […] Plates were sealed and counted in a Packard Topcount scintillation counter. […]

[2] = system: human umbilical vein endothelial cells (HUVECs); experiment: HUVEC BrdU incorporation, VEGF stimulation; assay type: cell-based; details: 20 ng/ml VEGF, 72 hrs; read-out: Inhibition of BrdU incorporation in HUVEC cells, VEGF stimulation (IC50)
[3] = system: human umbilical vein endothelial cells (HUVECs); experiment: HUVEC BrdU incorporation, bFGF stimulation; assay type: cell-based; details: 0.3 ng/ml bFGF, 72 hrs; read-out: Inhibition of BrdU incorporation in HUVEC cells, BFGF Stimulation (IC50)

IC50 [1]: > 100 nM
Compound: O=C1Nc2ccc3ncccc3c2/C1=C/Nc1ccc(CCO)cc1 [Example 32]
IC50 [2]: 10 to 500 nM
IC50 [3]: 1100 to 5000 nM
